The source of these data is US7662814B2, “4-aminothieno[2,3-d]pyrimidine-6-carbonitrile derivatives as PDE7 inhibitors” (Laboratorios Almirall, S.A., priority 2003, dated 2010).

`COc1ccc(Cc2nc(NCCO)c3c(C)c(C#N)sc3n2)cc1OC` [Example 104, 2-(3,4-Dimethoxybenzyl)-4-[(2-hydroxyethyl)amino]-5-methylthieno[2,3-d]pyrimidine-6-carbonitrile] returned a melting point of 149 to 151 °C.

As for `CNc1nc(Cc2cc(OC)c(OC)c(OC)c2)nc2sc(C#N)c(C)c12` [Example 110, 5-Methyl-4-(methylamino)-2-(3,4,5-trimethoxybenzyl)thieno[2,3-d]pyrimidine-6-carbonitrile], the melting point was 194 to 195 °C.

`COc1cc(-c2nc(NC3CCCC3)c3c(C)c(C#N)sc3n2)cc(OC)c1OC` [Example 77, 4-(Cyclopentylamino)-5-methyl-2-(3,4,5-trimethoxyphenyl)thieno[2,3-d]pyrimidine-6-carbonitrile] came in with a melting point of 218 to 220 °C.

`Cc1ccc(-c2nc(N3CCOCC3)c3c(C)c(C#N)sc3n2)cc1` [Example 32, 5-Methyl-2-(4-methylphenyl)-4-morpholin-4-ylthieno[2,3-d]pyrimidine-6-carbonitrile] returned a melting point of 206 to 207 °C.

`C=CCN(C)c1nc(-c2cc(OC)c(OC)c(OC)c2)nc2sc(C#N)c(C)c12` [Example 78, 4-[Allyl(methyl)amino]-5-methyl-2-(3,4,5-trimethoxyphenyl)thieno[2,3-d]pyrimidine-6-carbonitrile]: the melting point lay in the range of 162 to 164 °C.

With `COc1cc(-c2nc(-n3nccn3)c3c(C)c(C#N)sc3n2)cc(OC)c1OC` [Example 90, 5-Methyl-4-(2H-1,2,3-triazol-2-yl)-2-(3,4,5-trimethoxyphenyl)thieno[2,3-d]pyrimidine-6-carbonitrile], the melting point was in the range of 208 to 210 °C.

`Cc1c(C#N)sc2nc(-c3ccccc3)nc(N3CCN(C)CC3)c12` [Example 50, 5-Methyl-4-(4-methyl-piperazin-1-yl)-2-phenyl-thieno[2,3-d-]pyrimidine-6-carbonitrile] showed a melting point of 223 to 225 °C.

Molecule `CCC(CC)Nc1nc(Cc2cc(OC)c(OC)c(OC)c2)nc2sc(C#N)c(C)c12` [Example 115, 4-[(1-Ethylpropyl)amino]-5-methyl-2-(3,4,5-trimethoxybenzyl)thieno[2,3-d]pyrimidine-6-carbonitrile] showed a melting point of 127 to 129 °C.

Take `COc1cc(-c2nc(N3CCOCC3)c3c(C)c(C#N)sc3n2)cc(OC)c1OC` [Example 51, 5-Methyl-4-morpholin-4-yl-2-(3,4,5-trimethoxy-phenyl)-thieno[2,3-d]pyrimidine-6-carbonitrile]: the melting point is over 250 °C.

Consider `Cc1c(C#N)sc2nc(-c3ccncc3)nc(N(C)CCO)c12` [Example 42, 4-[(2-Hydroxyethyl)(methyl)amino]-5-methyl-2-pyridin-4-ylthieno[2,3-d]pyrimidine-6-carbonitrile], for which the melting point was in the range of 194 to 195 °C.

Take `Cc1c(C#N)sc2nc(Cc3ccccc3)nc(N3CCOCC3)c12` [Example 58, 2-Benzyl-5-methyl-4-morpholin-4-yl-thieno[2,3-d]pyrimidine-6-carbonitrile]: the melting point was 88 to 90 °C.

On to `COc1cc(-c2nc(N(C)CCO)c3c(C)c(C#N)sc3n2)cc(OC)c1OC` [Example 52, 4-[(2-Hydroxy-ethyl)-methyl-amino]-5-methyl-2-(3,4,5-trimethoxy-phenyl)-thieno[2,3-d]pyrimidine-6-carbonitrile], for which the melting point was in the range of 164 to 166 °C.

As to `Cc1c(C#N)sc2nc(-c3ccc4c(c3)OCO4)nc(N3CCN(C)CC3)c12` [Example 34], the melting point lay within 196 to 197 °C.

For `CNc1nc(Cc2ccc(OC)c(OC)c2)nc2sc(C#N)c(C)c12` [Example 94, 2-(3,4-Dimethoxybenzyl)-5-methyl-4-(methylamino)thieno[2,3-d]pyrimidine-6-carbonitrile], the melting point lay in the range of 161 to 163 °C.

`C=CCN(C)c1nc(Cc2ccc(OC)c(OC)c2)nc2sc(C#N)c(C)c12` [Example 102, 4-[Allyl(methyl)amino]-2-(3,4-dimethoxybenzyl)-5-methylthieno[2,3-d]pyrimidine-6-carbonitrile] returned a melting point of 98 to 100 °C.

For the molecule `COc1cc(-c2nc(N(C)CCN(C)C)c3c(C)c(C#N)sc3n2)cc(OC)c1OC` [Example 107, 4-[[2-(Dimethylamino)ethyl](methyl)amino]-5-methyl-2-(3,4,5-trimethoxyphenyl) thieno[2,3-d]pyrimidine-6-carbonitrile], the melting point lay in the range of 125 to 127 °C.

Consider `CCC(C)Nc1nc(Cc2cc(OC)c(OC)c(OC)c2)nc2sc(C#N)c(C)c12` (stereo not shown) [Example 114, 4-(sec-Butylamino)-5-methyl-2-(3,4,5-trimethoxybenzyl)thieno[2,3-d]pyrimidine-6-carbonitrile], for which the melting point was in the range of 134 to 137 °C.

`COc1cc(-c2nc(N3CCNC(C)C3)c3c(C)c(C#N)sc3n2)cc(OC)c1OC` (stereo not shown) [Example 83, 5-Methyl-4-(3-methylpiperazin-1-yl)-2-(3,4,5-trimethoxyphenyl)thieno[2,3-d]pyrimidine-6-carbonitrile] showed a melting point of 213 to 215 °C.

The molecule `Cc1c(C#N)sc2nc(-c3ccc4c(c3)OCO4)nc(N3CCOCC3)c12` [Example 37, 2-(1,3-Benzodioxol-5-yl)-5-methyl-4-morpholin-4-ylthieno[2,3-d]pyrimidine-6-carbonitrile] returned a melting point of 197 to 198 °C.

`COc1ccc(-c2nc(N(C)C)c3c(C)c(C#N)sc3n2)cc1OC` [Example 46, 2-(3,4-Dimethoxyphenyl)-4-(dimethylamino)-5-methylthieno[2,3-d]pyrimidine-6-carbonitrile] gave a melting point of 198 to 200 °C.

With `COc1cc(Cc2nc(NCC(C)C)c3c(C)c(C#N)sc3n2)cc(OC)c1OC` [Example 135, 4-(Isobutylamino)-5-methyl-2-(3,4,5-trimethoxybenzyl)thieno[2,3-d]pyrimidine-6-carbonitrile], the melting point is 129 to 131 °C.

As for `Cc1c(C#N)sc2nc(-c3ccc(Cl)cc3)nc(N3CCOCC3)c12` [Example 23, 2-(4-Chlorophenyl)-5-methyl-4-morpholin-4-ylthieno[2,3-d]pyrimidine-6-carbonitrile], the melting point lay in the range of 205 to 207 °C.

Regarding `COc1ccc(-c2nc(N3CCOCC3)c3c(C)c(C#N)sc3n2)cc1` [Example 22, 2-(4-Methoxyphenyl)-5-methyl-4-morpholin-4-ylthieno[2,3-d]pyrimidine-6-carbonitrile], the melting point lay in the range of 204 to 206 °C.

`COc1cc(Cc2nc(NC(C)(C)C)c3c(C)c(C#N)sc3n2)cc(OC)c1OC` [Example 116, 4-(tert-Butylamino)-5-methyl-2-(3,4,5-trimethoxybenzyl)thieno[2,3-d]pyrimidine-6-carbonitrile] showed a melting point of 146 to 148 °C.

The molecule `COc1ccc(-c2nc(N3CCN(C)CC3)c3c(C)c(C#N)sc3n2)cc1` [Example 9, 2-(4-Methoxyphenyl)-5-methyl-4-(4-methylpiperazin-1-yl)thieno[2,3-d]pyrimidine-6-carbonitrile] showed a melting point of over 250 °C.

As to `CCN(C)c1nc(-c2ccncc2)nc2sc(C#N)c(C)c12` [Example 38, 4-[Ethyl(methyl)amino]-5-methyl-2-pyridin-4-ylthieno[2,3-d]pyrimidine-6-carbonitrile], the melting point lay within 162 to 164 °C.

`COc1ccc(-c2nc(N3CCCC3)c3c(C)c(C#N)sc3n2)cc1` [Example 11, 2-(4-Methoxyphenyl)-5-methyl-4-pyrrolidin-1-ylthieno[2,3-d]pyrimidine-6-carbonitrile] gave a melting point of 176 to 178 °C.

`Cc1c(C#N)sc2nc(-c3ccncc3)nc(N3CCOCC3)c12` [Example 41, 5-Methyl-4-morpholin-4-yl-2-pyridin-4-ylthieno[2,3-d]pyrimidine-6-carbonitrile] showed a melting point of over 250 °C.

On to `CCN(CC)c1nc(Cc2ccc(OC)c(OC)c2)nc2sc(C#N)c(C)c12` [Example 101, 4-(Diethylamino)-2-(3,4-dimethoxybenzyl)-5-methylthieno[2,3-d]pyrimidine-6-carbonitrile], for which the melting point fell in the range of 107 to 109 °C.

`CCN(C)c1nc(-c2ccc(OC)c(OC)c2)nc2sc(C#N)c(C)c12` [Example 26, 2-(3,4-Dimethoxyphenyl)-4-[ethyl(methyl)amino]-5-methylthieno[2,3-d]pyrimidine-6-carbonitrile] yielded a melting point of 133 to 135 °C.

In the case of `CCC(CC)Nc1nc(-c2cc(OC)c(OC)c(OC)c2)nc2sc(C#N)c(C)c12` [Example 73, 4-[(1-Ethylpropyl)amino]-5-methyl-2-(3,4,5-trimethoxyphenyl)thieno[2,3-d]pyrimidine-6-carbonitrile], the melting point was 226 to 228 °C.

In turn, `COc1ccc(Cc2nc(N3CCOCC3)c3c(C)c(C#N)sc3n2)cc1OC` [Example 92, 2-(3,4-Dimethoxybenzyl)-5-methyl-4-morpholin-4-ylthieno[2,3-d]pyrimidine-6-carbonitrile] displayed a melting point of 67 to 70 °C.

In turn, `COc1cc(-c2nc(N3CCN(C(C)=O)CC3)c3c(C)c(C#N)sc3n2)cc(OC)c1OC` [Example 85, 4-(4-Acetylpiperazin-1-yl)-5-methyl-2-(3,4,5-trimethoxyphenyl)thieno[2,3-d]pyrimidine-6-carbonitrile] showed a melting point of 211 to 213 °C.

As for `COc1cc(-c2nc(-n3cccn3)c3c(C)c(C#N)sc3n2)cc(OC)c1OC` [Example 88, 5-Methyl-4-(1H-pyrazol-1-yl)-2-(3,4,5-trimethoxyphenyl)thieno[2,3-d]pyrimidine-6-carbonitrile], the melting point lay in the range of 209 to 214 °C.

`COc1ccc(-c2nc(N(C)CCO)c3c(C)c(C#N)sc3n2)cc1` [Example 25, 4-[(2-Hydroxyethyl)(methyl)amino]-2-(4-methoxyphenyl)-5-methylthieno[2,3-d]pyrimidine-6-carbonitrile] displayed a melting point of 144 to 146 °C.

On to `Cc1c(C#N)sc2nc(CCc3ccccc3)nc(NC3CCC3)c12` [Example 128, 4-(Cyclobutylamino)-5-methyl-2-(2-phenylethyl)thieno[2,3-d]pyrimidine-6-carbonitrile], for which the melting point lay in the range of 153 to 155 °C.

For `CCN(C)c1nc(-c2ccc(C(=O)OC)cc2)nc2sc(C#N)c(C)c12` [Example 57], the melting point fell in the range of 125 to 128 °C.

As a reminder, the melting point is the temperature, or range, at which the solid turns liquid.
